Experimental data reported in US6911443B2 (Bayer Aktiengesellschaft, priority 2000, dated 2005).
Read-outs that look alike come from different tables or passages of the source.

Molecular target: T1, human Syk (GST-Syk) (Homo sapiens, UniProt P43405)
T1 construct: A cDNA fragment encoding human Syk openreading frame was cloned; made in house; host or cells: Sf21 insect cells (baculovirus, transfer vector pAcG2T)
Assay: Syk tyrosine kinase inhibitory assay
Assay type: biochemical
Summary of the method: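 GST-tagged human Syk from baculovirus/Sf21, 0.65 nM final, with 3 μM biotinylated 30-residue activation-loop peptide and 30 μM ATP in Tris pH 8.0/MgCl2 buffer, 0.25% DMSO; 1 h at room temperature. Phosphopeptide captured on streptavidin, detected by europium-labelled anti-phosphotyrosine 4G10 time-resolved fluorescence.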

[1] = in vitro, compounds as yielded by solid phase synthesis, purity about 40 to 90%, read-out: Activity grade (IC50 class)
[2] = Table 13, read-out: Activity grade
[3] = Table 17, IC50 classes, read-out: Activity grade
[4] = Table 11, read-out: Activity grade

Row | Compound | IC50 [1] | further results
1 | COc1ccc(-c2cc3nccn3c(Nc3ccc(NCCN(C)C)cc3)n2)cc1OC [Example 11-74] | < 500 nM | 
2 | CCSc1nc(-c2ccc3c(c2)OCCO3)cc2nccn12 [Example 1-13] | 500 to 2000 nM | 
3 | CCC(C)Sc1nc(-c2ccc(OC)c(OC)c2)cc2nccn12 (stereo not drawn) [Example 14-20] |  | IC50 [2]: < 500 nM
4 | CCSc1nc(-c2ccc(OCc3ccc(OC)cc3)c(OC)c2)cc2nccn12 [Example 3-3] | 500 to 2000 nM | 
5 | COc1ccc(-c2cc3nccn3c(Nc3ccc(C(=O)NCC(O)CO)cc3)n2)cc1OC (stereo not drawn) [Example 5] |  | IC50 [3]: < 500 nM
6 | COc1cc(-c2cc3nccn3c(Nc3ccccc3S(C)(=O)=O)n2)ccc1N1CCOCC1 [Example 12-57] |  | IC50 [4]: < 500 nM
7 | COc1ccc(-c2cc3nccn3c(Nc3ccccc3)n2)cc1NC(C)=O [Example 3] |  | IC50 [3]: < 500 nM
8 | CCSc1nc(-c2ccsc2)cc2nccn12 [Example 8-5] | 500 to 2000 nM | 
9 | COc1cc(-c2cc3nccn3c(Nc3ncccc3C(N)=O)n2)ccc1N1CCOCC1 [Example 38] |  | IC50 [3]: < 500 nM
10 | COc1ccc(-c2cc3nccn3c(Sc3nnnn3C)n2)cc1OC [Example 16-1] |  | IC50 (Table 15, read-out: Activity grade): < 500 nM
11 | CCOCCOc1cc(-c2cc3nccn3c(SCC)n2)ccc1OC [Example 4-6] | < 500 nM | 
12 | COc1ccc(-c2cc3nccn3c(Nc3ccc(C(=O)N(C)CCO)cc3)n2)cc1OC [compound 6] |  | IC50 [3]: < 500 nM
13 | COc1ccc(-c2cc3nccn3c(Nc3cc(OC)c(OC)c(OC)c3)n2)cc1OC [Example 12-14] |  | IC50 [4]: < 500 nM
14 | CCSc1nc(-c2ccc(OCCCN3CCSCC3)c(OC)c2)cc2nccn12 [Example 5-9] | < 500 nM | 
15 | COc1ccc(-c2cc3nccn3c(Nc3ccccc3)n2)cc1O [Example 12-10] |  | IC50 [4]: < 500 nM
16 | CCSc1nc(-c2cccc(OC)c2)cc2nccn12 [Example 8-1] | 500 to 2000 nM | 
17 | COc1ccc(-c2cc3nccn3c(SCC(C)C)n2)cc1OC [Example 14-22] |  | IC50 [2]: < 500 nM
18 | COc1ccc(Nc2nc(-c3ccc(OC)c(OC)c3)cc3nccn23)c(C(=O)O)c1 [Example 11-75] | < 500 nM | 

Row | Compound | IC50 [1] | further results
19 | COc1ccc(-c2cc3nccn3c(-c3ccccc3)n2)cc1OC [Example 34] |  | IC50 [3]: 500 to 2000 nM
20 | COc1ccc(-c2cc3nccn3c(Sc3ccc(C(F)(F)F)cn3)n2)cc1OC [Example 15-1] |  | IC50 (Table 14, read-out: Activity grade): < 500 nM
21 | COc1ccc(-c2cc3nccn3c(Sc3ccc(N)cc3)n2)cc1OC [Example 13-4] | < 500 nM | 
22 | COc1ccc(-c2cc3nccn3c(N[C@@H](CO)Cc3ccccc3)n2)cc1OC [Example 9-5] | 500 to 2000 nM | 
23 | CCSc1nc(-c2ccc(OC)c(OCCCN3CCOCC3)c2)cc2nccn12 [Example 5-11] | 500 to 2000 nM | 
24 | CCOc1ccc2nc(Nc3nc(-c4ccc(OC)c(OC)c4)cc4nccn34)sc2c1 [Example 12-6] |  | IC50 [4]: 500 to 2000 nM
25 | COc1ccc(-c2cc3nccn3c(Sc3nc4ccccc4s3)n2)cc1OC [Example 13-11] | < 500 nM | 
26 | COc1ccc(-c2cc3nccn3c(Sc3cccc(C(=O)O)c3)n2)cc1OC [Example 9-93] | 500 to 2000 nM | 
27 | Oc1ccc(Sc2nc(-c3ccccc3)cc3ncnn23)cc1 [Example 14-8] |  | IC50 [2]: 2000 to 10000 nM
28 | CCOc1ccc(-c2cc3nccn3c(SCC)n2)cc1OCC [Example 6-1] | < 500 nM | 
29 | CCSc1nc(-c2ccc(OC(=O)C(C)C)c(OC)c2)cc2nccn12 [Example 3-8] | 500 to 2000 nM | 
30 | COc1ccc(-c2cc3nccn3c(Nc3ccccc3)n2)cc1OC(C)=O [Example 12-17] |  | IC50 [4]: < 500 nM
31 | COc1ccc(-c2cc3nccn3c(N3CC[C@@H](NC(=O)C(F)(F)F)C3)n2)cc1OC [Example 9-70] | 2000 to 10000 nM | 
32 | COc1ccc(-c2cc3nccn3c(N3CCN(C(=O)c4ccco4)CC3)n2)cc1OC [Example 9-46] | 2000 to 10000 nM | 
33 | COc1ccc(-c2cc3nccn3c(Nc3ccccn3)n2)cc1OC [Example 12-3] |  | IC50 [4]: < 500 nM
34 | COc1ccc(-c2cc3nccn3c(Nc3cccc4c3C(=O)NC4=O)n2)cc1OC [Example 11-3] | < 500 nM | 
35 | COc1ccc(-c2cc3nccn3c(NCC(O)CO)n2)cc1OC (stereo not drawn) [Example 9-4] | 500 to 2000 nM | 
36 | COCCN(C)c1ccc(-c2cc3nccn3c(Nc3ccc(C)cc3)n2)cc1OC [Example 12-42] |  | IC50 [4]: < 500 nM
